Results: patent publication US20150299120A1, “Spirohydantoin compounds and their use as selective androgen receptor modulators” (NOVARTIS AG, priority 2012, published 2015)
Read-outs that look alike come from different tables or passages of the source.

Experiments:
androgen receptor (AR) = biological target: T1, androgen receptor (AR) (Homo sapiens, UniProt P10275); assay: Test 1: androgen receptor transcriptional activation (2XIDR17-luciferase) assay in transfected C2C12 cells; format: cell-based; conditions: for Emax: C2C12, C2C12 cells, percentage activity relative to 1 μM DHT, read-out: Biological activity (C2C12 cell) Emax % (converted); for % Biological activity (C2C12 cell) 100 nM: compound at 100 nM; for % Biological activity (C2C12 cell) 100 nM / % Biological activity (C2C12 cell) 5 μM: relative to 1 μM DHT; for % Biological activity (C2C12 cell) 5 μM: compound at 5 μM
T1 construct: transfecting C2C12 cells with a plasmid containing full-length AR; expressed in transfected cells; host or cells: mouse myoblastic C2C12 cells (ATCC CRL-1772), transiently transfected with AR-FL in pcDNA 3.1(+)
T1 sequence (P10275 1-920): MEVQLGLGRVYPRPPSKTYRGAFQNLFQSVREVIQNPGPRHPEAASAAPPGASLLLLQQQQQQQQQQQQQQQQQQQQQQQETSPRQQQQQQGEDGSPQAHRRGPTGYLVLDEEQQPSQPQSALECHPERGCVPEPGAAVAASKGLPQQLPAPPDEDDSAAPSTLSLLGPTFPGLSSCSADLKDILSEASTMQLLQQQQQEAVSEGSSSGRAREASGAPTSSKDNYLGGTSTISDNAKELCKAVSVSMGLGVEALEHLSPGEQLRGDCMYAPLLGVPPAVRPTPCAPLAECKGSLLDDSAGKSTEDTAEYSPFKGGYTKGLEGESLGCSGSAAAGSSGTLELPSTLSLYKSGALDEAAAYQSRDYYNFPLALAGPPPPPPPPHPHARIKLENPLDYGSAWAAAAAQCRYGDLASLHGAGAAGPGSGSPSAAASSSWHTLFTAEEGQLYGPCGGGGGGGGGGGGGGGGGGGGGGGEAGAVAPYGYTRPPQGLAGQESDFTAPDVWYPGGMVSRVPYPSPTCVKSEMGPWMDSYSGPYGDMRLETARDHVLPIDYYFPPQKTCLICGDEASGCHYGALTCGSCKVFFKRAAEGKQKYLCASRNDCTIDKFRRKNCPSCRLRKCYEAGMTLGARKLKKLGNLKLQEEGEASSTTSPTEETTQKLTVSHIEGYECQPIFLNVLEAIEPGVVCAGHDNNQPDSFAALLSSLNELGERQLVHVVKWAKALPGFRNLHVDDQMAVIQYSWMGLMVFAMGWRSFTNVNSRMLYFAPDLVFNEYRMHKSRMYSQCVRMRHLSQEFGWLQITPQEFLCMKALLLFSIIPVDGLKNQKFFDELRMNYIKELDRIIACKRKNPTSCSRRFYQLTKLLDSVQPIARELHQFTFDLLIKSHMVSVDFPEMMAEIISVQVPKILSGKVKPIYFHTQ
Method: A suitable assay to determine the ability of a ligand to transcriptionally activate androgen receptor (AR) is carried out using mouse myoblastic C2C12 cells. The assay involves transfecting C2C12 cells with a plasmid containing full-length AR along with an AR response element linked to luciferase (2XIDR17). The luminescence read-out at the end of the assay is measured using Victor 3 and is a direct measure of the transcriptional activity. The assay has been validated using the reference compound, BMS-564929, for which EC50 values have been reported in a similar set-up.
C2C12 cells were obtained from ATCC (Cat #CRL-1772) and maintained in DMEM modified to contain 4 mM L-glutamine, 4.5 g/L glucose, 1 mM sodium pyruvate and 1.5 g/L sodium bicarbonate and 10% FBS.
AR-FL in pcDNA 3.1(+) and 2XIDR17 in pGL4.26 plasmids prepared using Genelute plasmid miniprep kit from Sigma Cat #PLED35 Steadyglow Luciferase assay system Promega Cat #E2550
• C2C12 cells were seeded in a 96-well plate in DMEM (Dulbecco's Modified Eagle Medium) without phenol red and containing 10% CS-FBS (Charcoal-stripped Fetal Bovine Serum) at 8000 cells/well. • The next day, cells were transfected with an equimolar ratio of (Androgen Receptor-Full length) AR-FL and 2XIDR17-Luciferase at a total plasmid concentration of 200 ng/well using Lipofectamine 2000 following manufacturer's protocol. • For the transfection, 83 ng of AR-FL and 117 ng of 2XIDR17-Luciferase were in 12.5 μl of OptiMEM—Mix A. 0.4 μl of Lipofectamine 2000 was added to 12.5 μl of OptiMEM and incubated for 5 min at room temperature—Mix B. The two mixes A and B were mixed and incubated at room temperature for an additional fifteen minutes. An additional 50 μl of OptiMEM was added, gently mixed and this mixture was added to the cells in the 96-well plate. The above quantities are requirements per well of a 96-well plate. Master mixes were made for the entire plate, with proportional quantity of reagents being used. • 5 h after transfection, compounds were added to the wells in DMEM without phenol red and containing 10% CS-FBS, maintaining a final DMSO concentration of 0.5%. A typical dose response curve starts at 10 μM and includes a 7-point, log dilution, done in triplicates. • After overnight incubation with the compounds, 100 ul of working solution of Steadyglow reagent was added to the wells. • The plates were placed in a shaker for 15 min at the end of which the lysate containing luciferase was transferred to a white flat-bottom plate and read under a luminescence setting in Victor. • Background subtracted counts (Luminescence from DMSO control wells is considered the background) are used to calculate percentage activity, expressed relative to activity with 1 μM (Dihydrotestosterone) DHT (at least two sets of triplicates for 1 μM DHT are included per plate).
The EC50 curves for the compounds for 8 compound concentrations were fitted by the respective function using non-linear least-squares regression in Graphpad Prism 4.0 (Graphpad Software, San Diego, Calif., USA).

[1] = mouse myoblastic C2C12 cells transfected with full-length AR and 2XIDR17-luciferase, read-out: Biological activity (C2C12 cell) EC50
[2] = C2C12 cells, read-out: EC50 value in test 1

SMILES	Emax (androgen receptor (AR))	EC50 (androgen receptor (AR); [1])	melting point	further results
Cc1c(N2C(=O)N(CCOCCF)C3(CCCC3)C2=O)ccc(C#N)c1Cl [Example 9.2, 2-chloro-4-(1-(2-(2-fluoroethoxy)ethyl)-2,4-dioxo-1,3-diazaspiro[4.4]nonan-3-yl)-3-methylbenzonitrile]	83%	17.8 ± 6.6 nM	112 °C	
Cc1c(N2C(=O)N(CCO)C3(CCCC3)C2=O)ccc(C#N)c1Cl [Example 9.7, 2-chloro-4-(1-(2-hydroxyethyl)-2,4-dioxo-1,3-diazaspiro[4.4]nonan-3-yl)-3-methylbenzonitrile]	76%	199 nM	98 °C	
Cc1c(N2C(=O)N(C)C3(CCCC3=O)C2=O)ccc(C#N)c1Cl (racemic) [Example 1.1, 2-chloro-3-methyl-4-(1-methyl-2,4,6-trioxo-1,3-diazaspiro[4.4]nonan-3-yl)benzonitrile]	60%	847 nM	161 °C	
Cc1ccc(CN2C(=O)N(c3ccc(C#N)c(Cl)c3C)C(=O)C23CCCC3)cn1 [Example 8.6, 2-chloro-3-methyl-4-(1-((6-methylpyridin-3-yl)methyl)-2,4-dioxo-1,3-diazaspiro[4.4]nonan-3-yl)benzonitrile]		11 nM	177 °C	
Cc1c(N2C(=O)N(C)C3(CCCC3)C2=O)ccc(C#N)c1Cl [Example 3.0, 2-chloro-3-methyl-4-(1-methyl-2,4-dioxo-1,3-diazaspiro[4.4]nonan-3-yl)benzonitrile]	100%	0.41 nM	154 °C	
Cc1c(N2C(=O)N(C)C3(CCC3)C2=O)ccc(C#N)c1Cl [Example 12.0, 2-chloro-3-methyl-4-(5-methyl-6,8-dioxo-5,7-diazaspiro[3.4]octan-7-yl)benzonitrile]			133 °C	% Biological activity (C2C12 cell) 100 nM (androgen receptor (AR); C2C12 cells): 67%; % Biological activity (C2C12 cell) 5 μM (androgen receptor (AR); C2C12 cells): 70%
Cc1c(N2C(=O)N(C)C3(CCCC3O)C2=O)ccc(C#N)c1Cl (stereo not drawn)			188 °C	
CCN1C(=O)N(c2ccc(C#N)c(Cl)c2C)C(=O)C12CCCC2 [Example 3.2, 2-chloro-4-(1-ethyl-2,4-dioxo-1,3-diazaspiro[4.4]nonan-3-yl)-3-methylbenzonitrile]	83%	23.5 nM	94 °C	
Cc1c(N2C(=O)N(CC3CCOC3)C3(CCCC3)C2=O)ccc(C#N)c1Cl (stereo not drawn) [Example 11.0, 2-chloro-4-(2,4-dioxo-1-((tetrahydrofuran-3-yl)methyl)-1,3-diazaspiro[4.4]nonan-3-yl)-3-methylbenzonitrile]			70 °C	% Biological activity (C2C12 cell) 100 nM (androgen receptor (AR); C2C12 cells): 25%; % Biological activity (C2C12 cell) 5 μM (androgen receptor (AR); C2C12 cells): 48%
Cc1c(N2C(=O)N(CC(C)C)C3(CCCC3)C2=O)ccc(C#N)c1Cl [Example 9.5, 2-chloro-4-(1-isobutyl-2,4-dioxo-1,3-diazaspiro[4.4]nonan-3-yl)-3-methylbenzonitrile]			115 °C	% Biological activity (C2C12 cell) 100 nM (androgen receptor (AR); C2C12 cells): 11%; % Biological activity (C2C12 cell) 5 μM (androgen receptor (AR); C2C12 cells): 74%
Cc1c(N2C(=O)OC3(CCCC3O)C2=O)ccc(C#N)c1Cl (stereo not drawn)			150 °C	
Cc1c(N2C(=O)N(Cc3ccncc3)C3(CCCC3)C2=O)ccc(C#N)c1Cl [Example 8.5, 2-chloro-4-(2,4-dioxo-1-(pyridin-4-ylmethyl)-1,3-diazaspiro[4.4]nonan-3-yl)-3-methylbenzonitrile]		30.7 nM	76 °C	
Cc1c(N2C(=O)N(C)C3(CCC(=O)C3)C2=O)ccc(C#N)c1Cl (stereo not drawn) [Example 6.2, 2-chloro-3-methyl-4-(1-methyl-2,4,7-trioxo-1,3-diazaspiro[4.4]nonan-3-yl)benzonitrile]			219 °C	% Biological activity (C2C12 cell) 100 nM (androgen receptor (AR); C2C12 cells): 9%; % Biological activity (C2C12 cell) 5 μM (androgen receptor (AR); C2C12 cells): 29%
Cc1c(N2C(=N)C3(CCCC3)N(C)C2=O)ccc(C#N)c1Cl [Example 7.0, 2-chloro-4-(4-imino-1-methyl-2-oxo-1,3-diazaspiro[4.4]nonan-3-yl)-3-methylbenzonitrile]	53%	103 nM	199 °C	
Cc1c(N2C(=O)N(CCc3ccncc3)C3(CCCC3)C2=O)ccc(C#N)c1Cl [Example 8.2, 2-chloro-4-(2,4-dioxo-1-(2-(pyridin-4-yl)ethyl)-1,3-diazaspiro[4.4]nonan-3-yl)-3-methylbenzonitrile]	70%	203 nM		
Cc1c(N2C(=O)N(C)C3(CCC(F)C3)C2=O)ccc(C#N)c1Cl (single isomer, unassigned)			162 °C	
Cc1c(N2CC3(CCCC3F)OC2=O)ccc(C#N)c1Cl (stereo not drawn) [2-chloro-4-(6-fluoro-2-oxo-1-oxa-3-azaspiro[4.4]nonan-3-yl)-3-methylbenzonitrile]				EC50 (androgen receptor (AR); [2]): > 30000 nM
COC1N(c2ccc(C#N)c(Cl)c2C)C(=O)N(C)C12CCCC2 (stereo not drawn) [2-chloro-4-(4-methoxy-1-methyl-2-oxo-1,3-diazaspiro[4.4]nonan-3-yl)-3-methylbenzonitrile]				EC50 (androgen receptor (AR); [2]): > 30000 nM
Cc1c(N2CC3(CCCC3F)N(C)C2=O)ccc(C#N)c1Cl (stereo not drawn) [2-chloro-4-(6-fluoro-1-methyl-2-oxo-1,3-diazaspiro[4.4]nonan-3-yl)-3-methylbenzonitrile]				EC50 (androgen receptor (AR); [2]): > 30000 nM
Cc1c(N2C(=O)N(CCCCCC#N)C3(CCCC3)C2=O)ccc(C#N)c1Cl [Example 9.1, 2-chloro-4-(1-(5-cyanopentyl)-2,4-dioxo-1,3-diazaspiro[4.4]nonan-3-yl)-3-methylbenzonitrile]	108%	8.7 ± 2.1 nM		
Cc1cnc(CN2C(=O)N(c3ccc(C#N)c(Cl)c3C)C(=O)C23CCCC3)o1 [Example 8.7, 2-chloro-3-methyl-4-(1-((5-methyloxazol-2-yl)methyl)-2,4-dioxo-1,3-diazaspiro[4.4]nonan-3-yl)benzonitrile]	112%	8.9 nM		
Cc1c(N2C(=O)N(CCC3CCOCC3)C3(CCCC3)C2=O)ccc(C#N)c1Cl [2-chloro-4-(2,4-dioxo-1-(2-(tetrahydro-2H-pyran-4-yl)ethyl)-1,3-diazaspiro[4.4]nonan-3-yl)-3-methylbenzonitrile]				EC50 (androgen receptor (AR); [2]): > 30000 nM
Cc1c(N2C(=O)N(C)[C@]3(CCC[C@@H]3F)C2=O)ccc(C#N)c1Cl [1.4(iv), 2-chloro-4-((5R,6S)-6-fluoro-1-methyl-2,4-dioxo-1,3-diazaspiro[4.4]nonan-3-yl)-3-methylbenzonitrile]		0.79 nM		
